Laboratory results: article PMC8617031, “Development of a BCL-xL and BCL-2 dual degrader with improved anti-leukemic activity,” (Nature Communications, 2021)
Where “and” joins values, the source holds several entries; their conditions need not be identical. Equal entries are not always repeated.

Key:
[1] = target: T1, BCL-2 (Homo sapiens, UniProt P10415); experiment: BCL-2 degradation by immunoblot in 293T cells; format: cell-based; conditions: for normalized BCL-2 protein content at 1 µM: HEK-293T, 293T, 1 μM 753b, Fig. 3d
T1 construct: endogenous in cells
How it was run: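 Immunoblot of 293T cell lysates (RIPA, 20–40 μg protein per lane) with β-actin as loading control and chemiluminescent detection. Bands quantified by densitometry and normalized; DC50 and Dmax derived from the quantified blots, n = 3 biologically independent experiments.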

[2] = target: T2, BCL-xL/PROTAC/VHL-ELOC-ELOB (VCB) ternary complex (Homo sapiens, UniProt P40337+Q07817); experiment: AlphaLISA ternary complex formation, cell-free, BCL-xL; format: binding; conditions: for AlphaLISA signal, BCL-xL/PROTAC/VCB: Fig. 3e raw Alpha reads
T2 construct: pGEX-6P-1-VHL(54-213) (pDL2200) was constructed through Gibson assembly method; made in house; host or cells: bacterial culture (LB broth, IPTG induction)
How it was run: (§1)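 Cell-free AlphaLISA: 5 nM His-tagged BCL-xL or BCL-2 plus 5 nM GST-VCB incubated with fourfold serially diluted compound 30 min at room temperature. Glutathione donor and His acceptor beads (20 µg/ml each) then added for 15 and 45 min; AlphaLISA signal plotted against compound concentration.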

[3] = target: T3, BCL-2/PROTAC/VCB ternary complex (Homo sapiens, UniProt P10415+P40337); experiment: AlphaLISA ternary complex formation, cell-free, BCL-2; format: binding; conditions: for Alpha (Alpha Endpoint read, Bcl-2 ternary complex formation): raw plate signal, duplicate wells
T3 construct: pGEX-6P-1-VHL(54-213) (pDL2200) was constructed through Gibson assembly method; made in house; host or cells: bacterial culture (LB broth, IPTG induction)
How it was run: as §1

T2 sequence (Q07817 1-212 limits assumed): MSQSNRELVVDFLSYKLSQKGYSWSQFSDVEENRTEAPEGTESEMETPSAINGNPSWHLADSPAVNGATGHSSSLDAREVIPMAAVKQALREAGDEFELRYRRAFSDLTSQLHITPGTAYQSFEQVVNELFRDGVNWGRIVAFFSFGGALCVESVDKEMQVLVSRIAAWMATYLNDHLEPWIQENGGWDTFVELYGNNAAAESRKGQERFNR
T2 sequence (P40337 54-213 limits assumed): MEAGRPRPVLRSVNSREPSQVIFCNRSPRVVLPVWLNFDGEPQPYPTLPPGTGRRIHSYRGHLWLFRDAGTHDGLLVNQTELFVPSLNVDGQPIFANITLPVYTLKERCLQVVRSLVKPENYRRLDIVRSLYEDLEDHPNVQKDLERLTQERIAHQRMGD
T2 sequence (Q15369 17-112 partner limits assumed): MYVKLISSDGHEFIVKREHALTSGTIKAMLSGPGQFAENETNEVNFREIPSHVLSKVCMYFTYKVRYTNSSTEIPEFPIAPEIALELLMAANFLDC
T2 sequence (Q15370 whole entry partner): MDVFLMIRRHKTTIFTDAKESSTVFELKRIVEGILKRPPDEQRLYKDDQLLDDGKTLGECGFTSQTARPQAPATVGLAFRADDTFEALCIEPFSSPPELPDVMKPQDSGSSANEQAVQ
T1 sequence (P10415 whole entry): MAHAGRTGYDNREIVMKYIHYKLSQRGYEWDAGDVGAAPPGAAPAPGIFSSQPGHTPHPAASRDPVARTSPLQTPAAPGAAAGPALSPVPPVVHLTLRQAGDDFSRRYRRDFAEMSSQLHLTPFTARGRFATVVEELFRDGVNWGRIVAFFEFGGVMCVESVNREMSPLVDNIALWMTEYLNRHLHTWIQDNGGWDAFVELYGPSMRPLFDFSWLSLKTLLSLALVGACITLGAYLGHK
T3 sequence (P10415 1-211 limits assumed): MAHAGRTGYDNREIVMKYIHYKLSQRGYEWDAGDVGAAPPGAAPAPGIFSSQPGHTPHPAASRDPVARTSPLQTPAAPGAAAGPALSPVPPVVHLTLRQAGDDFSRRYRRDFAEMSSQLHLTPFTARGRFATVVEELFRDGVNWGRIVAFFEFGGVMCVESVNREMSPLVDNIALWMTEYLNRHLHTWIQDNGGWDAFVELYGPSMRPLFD
T3 sequence (P40337 54-213 limits assumed): as the sequence (P40337 54-213 limits assumed) above
T3 sequence (Q15369 17-112 partner limits assumed): as the sequence (Q15369 17-112 partner limits assumed) above
T3 sequence (Q15370 whole entry partner): as the sequence (Q15370 whole entry partner) above

Structure (SMILES): Cc1ncsc1-c1ccc([C@H](C)NC(=O)[C@@H]2C[C@@H](O)CN2C(=O)[C@@H](NC(=O)CCCCCCC(=O)N2CCN(C[C@]3(C)CCC(c4ccc(Cl)cc4)=C(CN4CCN(c5ccc(C(=O)NS(=O)(=O)c6ccc(N[C@H](CCN7CCOCC7)CSc7ccccc7)c(S(=O)(=O)C(F)(F)F)c6)cc5)CC4)C3)CC2)C(C)(C)C)cc1 [753b]
- DC50 ([1]; 293T cells, 16 h, Fig. 3c, read-out: DC50 in degrading BCL-2): 48 nM
- normalized BCL-2 protein content at 1 µM ([1]; time point 1 (unit inferred), time 0 = 100, 3 replicates): 99%
- normalized BCL-2 protein content at 1 µM ([1]; time point 3): 75%
- normalized BCL-2 protein content at 1 µM ([1]; time point 6): 54%
- normalized BCL-2 protein content at 1 µM ([1]; time point 12): 18%
- normalized BCL-2 protein content at 1 µM ([1]; time point 16): 4%
- normalized BCL-2 protein content at 1 µM ([1]; time point 24): 3%
- normalized BCL-2 protein content at 1 µM ([1]; time point 36): 2%
- in vitro ternary complex formation with BCL-xL (in words) ([2]; AlphaLISA, cell-free, Fig. 2c, 3e): stronger ternary complexes with BCL-xL/2 than those by 753a and DT2216
- AlphaLISA signal, BCL-xL/PROTAC/VCB ([2]; compound 0.19 nM): 52786 and 55133
- AlphaLISA signal, BCL-xL/PROTAC/VCB ([2]; compound 0.76 nM): 140034 and 175918
- AlphaLISA signal, BCL-xL/PROTAC/VCB ([2]; compound 3.05 nM): 554325 and 621989
- AlphaLISA signal, BCL-xL/PROTAC/VCB ([2]; compound 12.21 nM): 1164205 and 1155712
- AlphaLISA signal, BCL-xL/PROTAC/VCB ([2]; compound 48.83 nM): 1828094 and 1838568
- AlphaLISA signal, BCL-xL/PROTAC/VCB ([2]; compound 195.31 nM): 1687174 and 1602581
- AlphaLISA signal, BCL-xL/PROTAC/VCB ([2]; compound 781.25 nM): 724516 and 720957
- AlphaLISA signal, BCL-xL/PROTAC/VCB ([2]; compound 3125 nM): 238805 and 237649
- AlphaLISA signal, BCL-xL/PROTAC/VCB ([2]; compound 12500 nM): 37696 and 47526
- AlphaLISA signal, BCL-xL/PROTAC/VCB ([2]; compound 50000 nM, 2 technical replicates): 26805 and 26614
- in vitro ternary complex formation with BCL-2 (in words) ([3]; AlphaLISA, cell-free, Fig. 2d, 3f): stronger ternary complexes with BCL-xL/2 than those by 753a and DT2216
- Alpha (Alpha Endpoint read, Bcl-2 ternary complex formation) ([3]; Conc. 0.0762939 nM): 175483 and 157446
- Alpha (Alpha Endpoint read, Bcl-2 ternary complex formation) ([3]; Conc. 0.305176 nM): 174555 and 132830
- Alpha (Alpha Endpoint read, Bcl-2 ternary complex formation) ([3]; Conc. 1.2207 nM): 345223 and 378556
- Alpha (Alpha Endpoint read, Bcl-2 ternary complex formation) ([3]; Conc. 4.88281 nM): 1458903 and 1528033
- Alpha (Alpha Endpoint read, Bcl-2 ternary complex formation) ([3]; Conc. 19.5312 nM): 3478424 and 3254843
- Alpha (Alpha Endpoint read, Bcl-2 ternary complex formation) ([3]; Conc. 78.125 nM): 2950431 and 3084677
- Alpha (Alpha Endpoint read, Bcl-2 ternary complex formation) ([3]; Conc. 312.5 nM): 1886162 and 2006989
- Alpha (Alpha Endpoint read, Bcl-2 ternary complex formation) ([3]; Conc. 1250 nM): 474662 and 509499
- Alpha (Alpha Endpoint read, Bcl-2 ternary complex formation) ([3]; Conc. 5000 nM): 83238 and 74082
- Alpha (Alpha Endpoint read, Bcl-2 ternary complex formation) ([3]; Conc. 20000 nM): 44557 and 25949
